# Source: ChEMBL document CHEMBL3886358, “Quinolyl-containing hydroxamic acid compound and preparation method thereof, and pharmaceutical composition containing this compound and use thereof” (2015)
# Legend:
# Histone deacetylase 11 = target: T1, Histone deacetylase 11 (Homo sapiens, UniProt Q96DB2); test: (§1) Inhibition Assay: The inhibitions of activities of HDAC enzymes by the compounds N1'-[3-fluoro-4-[[7-[4-(hydroxyamino)-4-oxobutoxy]-6-methoxy-4-quinolyl]oxy]phenyl]-N1-(4-fluoro phenyl)cyclopropane-1,1-dicarboxamide prepared in Example 9 and N1'-[3-fluoro-4-[[7-[6-(hydroxyamino)-6-oxohexyloxy]-6-methoxy-4-quinolyl]oxy]phenyl]-N1-(4-fluo rophenyl)cyclopropane-1,1-dicarboxamide prepared in Example 13 were measured by Reaction Biology Corporation (Reaction Biology Corp., One Great Valley Parkway, Suite 2, Malvern, PA 19355, USA . http://www.reactionbiology.com/pages/hdac.htm). The HDAC enzymes tested include the following 11 HDAC isoforms: HDAC1, HDAC2, HDAC3, HDAC4, HDAC5, HDAC6, HDAC7, HDAC8, HDAC9, HDAC10 and HDAC11.Specific steps were as follows: The compound of the present invention was dissolved in dimethyl sulfoxide (DMSO) to make a stock solution of 10 mM. The stock solution was diluted in 4-fold series starting from 10 mM to prepare 10 different dosages.
# T1 sequence (Q96DB2 whole entry): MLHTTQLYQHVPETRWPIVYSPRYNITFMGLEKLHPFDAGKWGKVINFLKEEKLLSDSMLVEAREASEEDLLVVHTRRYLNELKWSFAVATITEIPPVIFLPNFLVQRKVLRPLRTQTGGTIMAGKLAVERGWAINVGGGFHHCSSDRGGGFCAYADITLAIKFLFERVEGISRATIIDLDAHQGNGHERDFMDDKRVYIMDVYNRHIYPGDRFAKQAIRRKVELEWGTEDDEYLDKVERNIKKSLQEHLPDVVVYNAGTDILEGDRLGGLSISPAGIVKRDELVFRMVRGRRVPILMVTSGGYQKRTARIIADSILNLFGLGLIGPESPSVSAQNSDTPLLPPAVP
# Histone deacetylase 7 = target: T2, Histone deacetylase 7 (Homo sapiens, UniProt Q8WUI4); test: as §1
# T2 sequence (Q8WUI4 whole entry): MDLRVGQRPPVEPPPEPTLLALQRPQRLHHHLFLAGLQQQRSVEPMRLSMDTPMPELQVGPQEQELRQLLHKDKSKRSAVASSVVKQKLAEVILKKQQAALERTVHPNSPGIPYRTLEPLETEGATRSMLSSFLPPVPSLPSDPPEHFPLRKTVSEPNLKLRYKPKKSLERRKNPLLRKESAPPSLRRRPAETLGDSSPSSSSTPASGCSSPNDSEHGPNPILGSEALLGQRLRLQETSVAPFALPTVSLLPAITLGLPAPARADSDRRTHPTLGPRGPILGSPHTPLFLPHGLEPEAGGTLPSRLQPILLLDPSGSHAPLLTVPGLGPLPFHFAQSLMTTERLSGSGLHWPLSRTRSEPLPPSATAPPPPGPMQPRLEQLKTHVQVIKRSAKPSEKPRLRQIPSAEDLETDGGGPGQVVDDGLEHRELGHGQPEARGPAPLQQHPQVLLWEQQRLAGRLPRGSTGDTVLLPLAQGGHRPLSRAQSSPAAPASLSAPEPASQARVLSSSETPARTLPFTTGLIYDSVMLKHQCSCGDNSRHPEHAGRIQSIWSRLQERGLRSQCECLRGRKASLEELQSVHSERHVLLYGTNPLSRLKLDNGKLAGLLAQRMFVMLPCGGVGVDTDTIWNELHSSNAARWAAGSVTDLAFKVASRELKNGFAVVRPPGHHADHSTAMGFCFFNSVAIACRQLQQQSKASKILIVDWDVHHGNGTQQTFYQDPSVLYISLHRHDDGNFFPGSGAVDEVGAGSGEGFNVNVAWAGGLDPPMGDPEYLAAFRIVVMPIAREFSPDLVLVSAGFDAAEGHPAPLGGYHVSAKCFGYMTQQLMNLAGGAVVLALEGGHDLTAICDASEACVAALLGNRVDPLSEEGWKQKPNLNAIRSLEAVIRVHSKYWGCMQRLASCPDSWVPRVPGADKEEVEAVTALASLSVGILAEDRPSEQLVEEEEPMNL
# [1] = target: Hepatocyte growth factor receptor (Homo sapiens, UniProt P08581); test: (§2) Sci. USA 1988, 85(23), 9312). Specific steps were as follows: The compound of the present invention was dissolved in dimethyl sulfoxide (DMSO) to make a stock solution of 2 mM, then the stock solution was diluted with DMSO following a 7 half-log series to concentrations ranging from 2 uM to 600 pM.; type: cell-based
# Sequence of Hepatocyte growth factor receptor (P08581 whole entry): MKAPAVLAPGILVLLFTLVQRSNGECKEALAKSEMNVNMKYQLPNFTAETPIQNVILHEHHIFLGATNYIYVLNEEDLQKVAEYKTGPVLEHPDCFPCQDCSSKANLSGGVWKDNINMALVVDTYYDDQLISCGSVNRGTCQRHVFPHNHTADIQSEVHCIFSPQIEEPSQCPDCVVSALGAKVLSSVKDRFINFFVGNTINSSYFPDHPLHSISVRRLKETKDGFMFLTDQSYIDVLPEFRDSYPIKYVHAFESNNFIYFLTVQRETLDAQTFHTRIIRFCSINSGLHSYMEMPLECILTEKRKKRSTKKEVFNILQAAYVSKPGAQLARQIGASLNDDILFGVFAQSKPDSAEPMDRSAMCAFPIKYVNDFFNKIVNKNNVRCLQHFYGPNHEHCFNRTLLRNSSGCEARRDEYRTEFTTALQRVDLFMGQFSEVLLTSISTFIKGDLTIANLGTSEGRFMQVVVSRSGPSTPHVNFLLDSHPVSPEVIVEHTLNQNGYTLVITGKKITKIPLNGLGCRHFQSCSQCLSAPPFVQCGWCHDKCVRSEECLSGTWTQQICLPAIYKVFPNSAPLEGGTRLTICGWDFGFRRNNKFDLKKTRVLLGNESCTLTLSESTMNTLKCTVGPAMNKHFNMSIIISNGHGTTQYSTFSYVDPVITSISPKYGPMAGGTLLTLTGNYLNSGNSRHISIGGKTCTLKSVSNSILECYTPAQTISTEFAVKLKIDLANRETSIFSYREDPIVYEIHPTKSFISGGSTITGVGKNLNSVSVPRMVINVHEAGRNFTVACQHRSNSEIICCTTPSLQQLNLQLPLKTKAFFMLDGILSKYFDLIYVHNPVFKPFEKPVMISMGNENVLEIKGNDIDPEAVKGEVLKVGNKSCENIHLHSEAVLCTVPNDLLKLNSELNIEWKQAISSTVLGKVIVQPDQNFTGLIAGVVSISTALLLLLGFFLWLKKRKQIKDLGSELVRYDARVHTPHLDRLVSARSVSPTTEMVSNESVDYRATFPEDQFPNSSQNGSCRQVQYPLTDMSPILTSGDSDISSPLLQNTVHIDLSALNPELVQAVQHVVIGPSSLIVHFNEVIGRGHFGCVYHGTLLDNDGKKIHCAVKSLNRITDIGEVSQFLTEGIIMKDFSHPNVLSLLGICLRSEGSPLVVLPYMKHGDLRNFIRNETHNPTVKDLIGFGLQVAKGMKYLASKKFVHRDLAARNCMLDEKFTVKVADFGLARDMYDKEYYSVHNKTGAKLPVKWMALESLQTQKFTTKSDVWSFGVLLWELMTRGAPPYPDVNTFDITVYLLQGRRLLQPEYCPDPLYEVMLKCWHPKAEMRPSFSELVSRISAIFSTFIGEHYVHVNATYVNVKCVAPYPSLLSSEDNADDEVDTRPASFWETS
# [2] = target: Proto-oncogene tyrosine-protein kinase Src (Homo sapiens, UniProt P12931); test: as §2; type: cell-based
# [3] = target: Vascular endothelial growth factor receptor 2 (Homo sapiens, UniProt P35968); test: as §2; type: cell-based
# Sequence of Vascular endothelial growth factor receptor 2 (P35968 whole entry): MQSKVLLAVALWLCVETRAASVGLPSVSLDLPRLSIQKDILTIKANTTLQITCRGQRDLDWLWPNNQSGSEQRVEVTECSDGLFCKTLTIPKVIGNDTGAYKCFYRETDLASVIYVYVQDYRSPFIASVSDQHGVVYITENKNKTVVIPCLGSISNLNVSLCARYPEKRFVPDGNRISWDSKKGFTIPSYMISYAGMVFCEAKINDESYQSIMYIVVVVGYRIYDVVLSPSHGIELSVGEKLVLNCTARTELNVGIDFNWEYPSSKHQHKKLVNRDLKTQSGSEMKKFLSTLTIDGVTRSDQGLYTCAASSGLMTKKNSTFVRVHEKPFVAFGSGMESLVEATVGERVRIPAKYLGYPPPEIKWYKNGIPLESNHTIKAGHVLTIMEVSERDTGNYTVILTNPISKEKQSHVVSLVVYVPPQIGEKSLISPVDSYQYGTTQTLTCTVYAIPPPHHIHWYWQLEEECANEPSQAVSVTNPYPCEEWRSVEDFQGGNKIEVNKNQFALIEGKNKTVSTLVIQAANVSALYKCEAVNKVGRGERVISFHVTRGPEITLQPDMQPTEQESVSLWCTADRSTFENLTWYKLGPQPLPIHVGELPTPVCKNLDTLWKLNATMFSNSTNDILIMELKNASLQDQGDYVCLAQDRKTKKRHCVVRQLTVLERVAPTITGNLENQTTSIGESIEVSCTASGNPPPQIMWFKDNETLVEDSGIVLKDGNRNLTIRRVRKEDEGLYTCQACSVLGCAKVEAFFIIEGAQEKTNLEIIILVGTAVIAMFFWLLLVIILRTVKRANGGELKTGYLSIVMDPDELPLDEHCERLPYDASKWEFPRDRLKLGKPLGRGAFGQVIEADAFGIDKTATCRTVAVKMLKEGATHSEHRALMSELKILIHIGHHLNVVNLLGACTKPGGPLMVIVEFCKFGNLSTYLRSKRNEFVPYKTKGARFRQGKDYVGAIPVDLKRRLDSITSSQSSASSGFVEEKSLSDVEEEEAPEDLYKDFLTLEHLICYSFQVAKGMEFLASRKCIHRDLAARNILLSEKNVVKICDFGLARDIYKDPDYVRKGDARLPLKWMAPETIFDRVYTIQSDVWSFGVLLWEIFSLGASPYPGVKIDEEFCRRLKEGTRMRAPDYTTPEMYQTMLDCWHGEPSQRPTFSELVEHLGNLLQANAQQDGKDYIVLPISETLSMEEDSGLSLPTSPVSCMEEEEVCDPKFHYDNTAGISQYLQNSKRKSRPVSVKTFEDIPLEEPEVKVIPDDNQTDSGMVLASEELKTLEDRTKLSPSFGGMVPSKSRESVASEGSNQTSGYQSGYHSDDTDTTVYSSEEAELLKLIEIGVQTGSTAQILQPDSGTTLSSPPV
# [4] = target: Proto-oncogene tyrosine-protein kinase receptor Ret (Homo sapiens, UniProt P07949); test: as §2; type: cell-based
# Sequence of Proto-oncogene tyrosine-protein kinase receptor Ret (P07949 whole entry): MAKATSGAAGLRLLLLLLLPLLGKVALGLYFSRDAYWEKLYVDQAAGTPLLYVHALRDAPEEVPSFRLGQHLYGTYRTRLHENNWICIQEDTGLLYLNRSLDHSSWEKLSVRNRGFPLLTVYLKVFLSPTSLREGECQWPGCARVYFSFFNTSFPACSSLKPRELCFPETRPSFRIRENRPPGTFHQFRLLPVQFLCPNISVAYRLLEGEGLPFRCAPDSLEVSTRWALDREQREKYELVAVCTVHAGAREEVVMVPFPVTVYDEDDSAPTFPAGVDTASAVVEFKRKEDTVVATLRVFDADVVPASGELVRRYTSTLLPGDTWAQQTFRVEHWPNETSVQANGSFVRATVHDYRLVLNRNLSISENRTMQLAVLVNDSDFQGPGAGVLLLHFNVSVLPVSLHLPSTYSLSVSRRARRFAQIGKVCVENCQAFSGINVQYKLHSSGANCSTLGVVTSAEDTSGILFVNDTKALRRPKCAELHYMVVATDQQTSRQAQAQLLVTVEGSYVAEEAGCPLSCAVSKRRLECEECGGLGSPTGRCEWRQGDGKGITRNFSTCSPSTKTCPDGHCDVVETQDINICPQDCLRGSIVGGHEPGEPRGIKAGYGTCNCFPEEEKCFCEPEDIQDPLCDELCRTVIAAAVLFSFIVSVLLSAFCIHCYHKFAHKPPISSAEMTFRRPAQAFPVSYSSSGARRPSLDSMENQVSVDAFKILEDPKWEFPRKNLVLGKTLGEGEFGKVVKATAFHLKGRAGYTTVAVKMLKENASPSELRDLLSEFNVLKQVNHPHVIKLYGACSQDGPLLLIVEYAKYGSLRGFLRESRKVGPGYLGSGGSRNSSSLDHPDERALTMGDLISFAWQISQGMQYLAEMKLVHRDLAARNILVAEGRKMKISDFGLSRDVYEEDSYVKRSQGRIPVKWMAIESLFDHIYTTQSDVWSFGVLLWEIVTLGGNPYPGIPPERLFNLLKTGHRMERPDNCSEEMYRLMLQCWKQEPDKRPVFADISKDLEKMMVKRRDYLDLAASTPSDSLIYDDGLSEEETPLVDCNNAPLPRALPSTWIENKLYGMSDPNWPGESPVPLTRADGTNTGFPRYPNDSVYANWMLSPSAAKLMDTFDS
# [5] = target: Platelet-derived growth factor receptor beta (Homo sapiens, UniProt P09619); test: as §2; type: cell-based
# Sequence of Platelet-derived growth factor receptor beta (P09619 whole entry): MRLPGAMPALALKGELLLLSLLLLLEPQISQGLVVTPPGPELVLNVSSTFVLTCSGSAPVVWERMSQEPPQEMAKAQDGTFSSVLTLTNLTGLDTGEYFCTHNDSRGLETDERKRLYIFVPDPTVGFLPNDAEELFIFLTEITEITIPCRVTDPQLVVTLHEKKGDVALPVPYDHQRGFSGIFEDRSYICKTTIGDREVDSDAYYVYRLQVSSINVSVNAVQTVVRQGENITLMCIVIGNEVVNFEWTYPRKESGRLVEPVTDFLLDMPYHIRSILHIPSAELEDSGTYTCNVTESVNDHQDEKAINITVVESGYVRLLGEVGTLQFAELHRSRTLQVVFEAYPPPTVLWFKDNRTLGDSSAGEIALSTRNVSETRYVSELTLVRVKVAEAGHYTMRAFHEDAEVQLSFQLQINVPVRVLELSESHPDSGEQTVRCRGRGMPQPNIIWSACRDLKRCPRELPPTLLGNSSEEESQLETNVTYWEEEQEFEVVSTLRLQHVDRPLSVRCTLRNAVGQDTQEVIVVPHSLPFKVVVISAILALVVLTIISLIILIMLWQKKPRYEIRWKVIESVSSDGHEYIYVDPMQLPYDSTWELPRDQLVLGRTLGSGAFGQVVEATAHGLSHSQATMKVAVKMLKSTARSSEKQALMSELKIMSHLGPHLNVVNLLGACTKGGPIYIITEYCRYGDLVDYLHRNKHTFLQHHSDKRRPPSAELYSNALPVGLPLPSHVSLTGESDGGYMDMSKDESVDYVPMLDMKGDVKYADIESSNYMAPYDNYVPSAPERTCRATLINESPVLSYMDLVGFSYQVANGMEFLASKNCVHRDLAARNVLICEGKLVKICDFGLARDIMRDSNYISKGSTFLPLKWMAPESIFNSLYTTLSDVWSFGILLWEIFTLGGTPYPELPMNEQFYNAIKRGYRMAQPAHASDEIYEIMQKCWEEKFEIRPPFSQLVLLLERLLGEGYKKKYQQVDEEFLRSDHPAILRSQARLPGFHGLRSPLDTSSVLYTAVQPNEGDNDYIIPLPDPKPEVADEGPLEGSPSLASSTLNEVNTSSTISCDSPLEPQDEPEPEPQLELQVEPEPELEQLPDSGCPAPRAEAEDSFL
# [6] = target: ALK tyrosine kinase receptor (Homo sapiens, UniProt Q9UM73); test: as §2; type: cell-based
# [7] = target: T3, Receptor-type tyrosine-protein kinase FLT3 (Homo sapiens, UniProt P36888); test: as §2; type: cell-based
# T3 sequence (P36888 whole entry): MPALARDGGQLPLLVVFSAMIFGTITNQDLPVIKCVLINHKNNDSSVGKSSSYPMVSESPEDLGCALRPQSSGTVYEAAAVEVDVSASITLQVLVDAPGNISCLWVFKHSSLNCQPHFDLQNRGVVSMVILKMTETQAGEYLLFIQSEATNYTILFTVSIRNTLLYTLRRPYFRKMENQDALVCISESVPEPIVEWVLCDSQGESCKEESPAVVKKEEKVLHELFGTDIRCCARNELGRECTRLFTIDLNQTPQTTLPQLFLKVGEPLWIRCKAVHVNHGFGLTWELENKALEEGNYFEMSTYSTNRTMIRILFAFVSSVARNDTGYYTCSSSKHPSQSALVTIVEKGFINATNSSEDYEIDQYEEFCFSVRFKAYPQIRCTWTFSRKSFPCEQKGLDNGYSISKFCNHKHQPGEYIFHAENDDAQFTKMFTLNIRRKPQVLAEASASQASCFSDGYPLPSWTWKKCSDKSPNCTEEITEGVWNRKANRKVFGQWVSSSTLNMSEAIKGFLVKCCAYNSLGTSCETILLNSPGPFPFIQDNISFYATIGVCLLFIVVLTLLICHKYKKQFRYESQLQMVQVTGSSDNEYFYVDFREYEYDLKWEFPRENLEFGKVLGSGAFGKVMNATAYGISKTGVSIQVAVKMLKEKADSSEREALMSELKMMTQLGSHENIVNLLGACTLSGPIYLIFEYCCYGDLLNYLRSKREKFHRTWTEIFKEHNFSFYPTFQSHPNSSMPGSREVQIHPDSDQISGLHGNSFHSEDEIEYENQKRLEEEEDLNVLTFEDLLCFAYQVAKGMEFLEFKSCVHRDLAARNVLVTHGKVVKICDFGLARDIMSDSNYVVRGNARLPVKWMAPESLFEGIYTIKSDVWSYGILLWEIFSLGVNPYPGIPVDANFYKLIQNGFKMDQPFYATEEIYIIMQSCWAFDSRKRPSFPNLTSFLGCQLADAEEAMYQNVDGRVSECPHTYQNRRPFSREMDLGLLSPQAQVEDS
Compound,IC50 (Histone deacetylase 11) [nM],IC50 (Histone deacetylase 7) [nM],IC50 [1] [nM],IC50 [2] [nM],IC50 [3] [nM],IC50 [4] [nM],IC50 [5] [nM],IC50 [6] [nM],IC50 [7] [nM]
COc1cc2c(Oc3ccc(NC(=O)C4(C(=O)Nc5ccc(F)cc5)CC4)cc3F)ccnc2cc1OCCCCCC(=O)NO,6130,> 10000,,,,,,,
COc1cc2c(Oc3ccc(NC(=O)C4(C(=O)Nc5ccc(F)cc5)CC4)cc3F)ccnc2cc1OCCCC(=O)NO,> 10000,> 10000,119,> 630,12,154,172,> 630,31
